From patent publication US8629132B2, “Kinase inhibitors” (Genosco, priority 2009, dated 2014)

Tests used:
JAK2 = JAK2 (Homo sapiens, UniProt O60674); experiment: Kinase inhibition assay: JAK2; format: biochemical; set-up: truncated human FAK, RET, FLT3, JAK2, and LRRK2; purchased Carna Biosciences
[1] = system: TNF-α release in THP-1 cells; experiment: SYK dependent TNF-α release assay (IgG stimulation); format: cell-based, human
Method: Compounds of the present invention are tested for their effects on TNF-α release in human acute monocytic leukimia cell line (THP-1) to illustrate potential efficacy at the cellular level. TNF-α is a cytokine involved in systemic inflammation and is a member of a group of cytokines that stimulate the acute phase reaction. The primary role of TNF-α is in the regulation of immune cells. TNF-α is known to induce apoptotic cell death and inflammation and to inhibit early tumorigenesis and viral replication. Dysregulation and, in particular, overproduction of TNF-α have been implicated in a variety of human diseases, autoimmune disease, inflammation, arthritis and cancer.
Production or release of TNF-α is controlled by type of stimulus to which the cell responds. SYK activity is involved in mediating TNF-α production. When stimulated by IgG, cells increase TNF-α production in a SYK dependent manner (i.e., the SYK dependent pathway). However, when stimulated by lipopolysaccharide (LPS), they produce TNF-α in a SYK independent manner.
Compounds of the invention were tested for their TNF-α release effect on THP-1 cells. For SYK dependent TNF-α release assay (i.e., via IgG stimulation), THP-1 cells derived from human monocytic cells were obtained from the American Type Culture Collection (ATCC, Manassas, Va.). This cell line was maintained with an Roswell Park Memorial Institute (RPMI) medium (GIBCO™) containing 10 fetal bovine serum (FBS; GIBCO™) and 0.05 mM 2-mercaptoethanol. The THP-1 cells were seeded at 1×10^5 cells/100 μL/well into human IgG (10 μg/well, INVITROGENT™)-coated 96 well culture plate, and serially diluted compound was then added. After an 18-hour incubation period at 37° C., supernatants were collected for the determination of the TNF-α level by enzyme-linked immunosorbent assay (ELISA), and the remaining cells were subjected to an MTT (yellow tetrazolium salt) assay to determine the cytotoxic effects of compound.

Chain of JAK2 (O60674 826-1132 limits assumed): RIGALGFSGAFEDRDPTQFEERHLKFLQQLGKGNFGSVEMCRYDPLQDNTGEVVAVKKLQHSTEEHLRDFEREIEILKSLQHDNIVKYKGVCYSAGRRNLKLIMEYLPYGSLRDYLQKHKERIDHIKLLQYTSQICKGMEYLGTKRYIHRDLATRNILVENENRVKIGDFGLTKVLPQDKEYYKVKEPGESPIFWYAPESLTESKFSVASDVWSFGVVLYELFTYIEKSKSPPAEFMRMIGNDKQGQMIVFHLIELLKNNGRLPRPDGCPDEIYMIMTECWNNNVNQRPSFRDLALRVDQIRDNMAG

| IC50 (JAK2) | SMILES | inhibition at 0.3 µM ([1]; Homo sapiens, THP-1 cells, IgG stimulation, 0.3 μM, 18-hour incubation) | inhibition at 1 µM ([1]; Homo sapiens, THP-1 cells, IgG stimulation, 1 μM, 18-hour incubation) | percentage inhibition of TNF-α release compared with R406 ([1]; IgG stimulated release, 0.3 μM) |
| --- | --- | --- | --- | --- |
| 7.7 nM | COc1cc(Nc2ncc(C)c(-n3cc(C)c(CO)c3)n2)cc(OC)c1OC [Compound 21, (4-methyl-1-(5-methyl-2-(3,4,5-trimethoxyphenylamino)pyrimidin-4-yl)-1H-pyrrol-3-yl)methanol] | – | – | – |
| – | Cc1cc(C)cc(Nc2ncc(F)c(-n3cc(C)c(CN4CC[C@@H](O)C4)c3)n2)c1 [Compound 82, (R)-1-((1-(2-(3,5-dimethylphenyl-amino)-5-fluoropyrimidin-4-yl)-4-methyl-1H-pyrrol-3-yl)methyl) pyrrolidin-3-ol] | 49.2% | 91.4% | greater that those exhibited by R406 |
